Like-named read-outs stand apart in the source and are kept apart here.
Assays:
5-HT2A receptor [1] = biological target: T1, 5-HT2A receptor (Homo sapiens, UniProt P28223); test: biochemical; format: binding; conditions: 1 nM [^3H]ketanserin, HEK293 stable cell line; read-out: 5-HT2A Receptor Ki (nM) ([^3H]ketanserin)
T1 construct: host or cells: HEK293
Method in brief: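 Test compounds competed with [^3H]ketanserin for receptor binding, and affinity was derived from the radioligand displacement.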

5-HT2A receptor [2] = biological target: T1, 5-HT2A receptor; test: cell-based; format: cell-based; conditions: Ca^2+ flux, agonist; read-out: 5-HT2A EC50
5-HT1A receptor = biological target: T2, 5-HT1A receptor (Homo sapiens, UniProt P08908); test: cell-based
T2 construct: host or cells: CHO cells
T2 sequence (P08908 1-422): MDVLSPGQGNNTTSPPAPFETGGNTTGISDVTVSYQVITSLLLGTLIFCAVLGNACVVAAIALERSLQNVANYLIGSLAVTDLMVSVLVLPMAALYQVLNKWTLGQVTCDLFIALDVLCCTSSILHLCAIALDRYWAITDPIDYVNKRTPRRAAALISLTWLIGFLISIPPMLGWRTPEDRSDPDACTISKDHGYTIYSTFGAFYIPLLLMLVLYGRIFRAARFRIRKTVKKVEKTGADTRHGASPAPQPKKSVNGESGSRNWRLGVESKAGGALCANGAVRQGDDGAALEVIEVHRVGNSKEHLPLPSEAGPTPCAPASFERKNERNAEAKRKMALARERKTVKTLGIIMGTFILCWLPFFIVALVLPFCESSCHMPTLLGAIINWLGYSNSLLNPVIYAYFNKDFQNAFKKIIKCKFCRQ

5-HT2B receptor = biological target: T3, 5-HT2B receptor (Homo sapiens, UniProt P41595); test: cell-based; conditions: Ca^2+ flux, agonist; read-out: 5-HT2B EC50
T3 construct: host or cells: HEK293
T3 sequence (P41595 whole entry): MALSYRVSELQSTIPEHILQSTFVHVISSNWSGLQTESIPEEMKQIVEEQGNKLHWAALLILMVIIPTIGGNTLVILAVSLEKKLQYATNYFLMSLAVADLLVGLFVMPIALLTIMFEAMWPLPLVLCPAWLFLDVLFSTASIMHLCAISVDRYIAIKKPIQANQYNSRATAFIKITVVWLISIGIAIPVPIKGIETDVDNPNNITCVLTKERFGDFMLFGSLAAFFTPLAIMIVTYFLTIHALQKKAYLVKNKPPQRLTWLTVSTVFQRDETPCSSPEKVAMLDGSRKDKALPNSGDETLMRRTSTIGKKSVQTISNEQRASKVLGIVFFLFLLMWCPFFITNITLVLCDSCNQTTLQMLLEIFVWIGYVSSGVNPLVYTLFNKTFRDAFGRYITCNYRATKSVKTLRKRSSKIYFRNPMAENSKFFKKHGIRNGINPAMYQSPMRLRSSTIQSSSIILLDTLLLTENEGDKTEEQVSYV

human 5-HT2C receptor = biological target: T4, human 5-HT2C receptor (Homo sapiens, UniProt P28335); test: cell-based; conditions: Ca^2+ flux, agonist
T4 sequence (P28335 33-458): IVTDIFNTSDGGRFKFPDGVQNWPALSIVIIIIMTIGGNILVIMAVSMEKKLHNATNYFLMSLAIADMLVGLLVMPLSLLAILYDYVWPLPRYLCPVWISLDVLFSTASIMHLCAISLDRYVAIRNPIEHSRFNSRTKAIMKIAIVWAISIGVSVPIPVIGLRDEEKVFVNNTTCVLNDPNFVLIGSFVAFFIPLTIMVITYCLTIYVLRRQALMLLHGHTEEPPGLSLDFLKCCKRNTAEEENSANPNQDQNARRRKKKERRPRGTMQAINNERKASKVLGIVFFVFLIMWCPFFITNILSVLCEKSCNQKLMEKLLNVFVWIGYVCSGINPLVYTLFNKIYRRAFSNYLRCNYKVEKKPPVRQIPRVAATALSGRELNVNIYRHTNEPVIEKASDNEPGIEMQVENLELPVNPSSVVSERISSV

5-HT2A receptor [3] = biological target: T1, 5-HT2A receptor; test: PathHunter beta-arrestin recruitment assay at 5-HT2A; format: cell-based
Experimental: The degree of arrestin bias varied substantially across the other compounds tested as well.
Arrestin Functional Assay at 5-HT2A. Recruitment of beta-arrestin was determined using a PathHunter assay at Eurofins DiscoverX (Fremont, Calif.) according to their standard protocols. PathHunter GPCR beta-arrestin assays take advantage of DiscoverX's proprietary Enzyme Fragment Complementation technology. The GPCR is fused in frame with a small enzyme donor fragment ProLink™ (PK) and co-expressed in cells stably expressing a fusion protein of beta-arrestin and the larger, N-terminal deletion mutant of beta-galactosidase. Activation of the GPCR (5-HT2A receptor in this case) stimulates binding of beta-arrestin to the PK-tagged GPCR and forces complementation of the two enzyme fragments, resulting in the formation of an active beta-galactosidase enzyme. This interaction leads to an increase in enzyme activity that can be measured using chemiluminescent PathHunter Detection Reagents. Briefly, PathHunter cells expressing 5-HT2A receptors were seeded in a volume of 20 μL into 384-well plates and incubated at 37° C. for the appropriate time prior to testing. […] Plates were then imaged on a microplate reader and the agonist activity was calculated using the following formula: % Activity=100%×(mean RLU of test sample−mean RLU of vehicle control)/(mean MAX control ligand−mean RLU of vehicle control), where RLU=relative light units.

[4] = Metabolic stability in human liver microsomes (HLM); format: in vitro ADME; conditions: for t1/2: 1 μM, 0.50 mg protein per mL; for microsomal CLint at 1 μM: both sexes, human, pooled human liver microsomes, pH 7.4, 0.50 mg protein per mL
Source text: HLM Stability. Pooled HLM from adult male and female donors (Corning 452117) were used.

[5] = Metabolic stability in mouse liver microsomes (MLM); format: in vitro ADME; conditions: 0.50 mg protein per mL; for t1/2: MLM (CD-1), 1 μM; for microsomal CLint at 1 μM: mouse, pooled mouse liver microsomes, pH 7.4, MLM (CD-1)
Source text: MLM Stability Pooled MLM from CD-1 mice (BIOIVT M00501) were used.

[6] = Metabolic stability in rat liver microsomes (RLM); conditions: for t1/2: RLM, 0.50 mg protein per mL; for microsomal CLint at 1 μM: both, rat, pooled rat liver microsomes, pH 7.4
C57BL/6 mice = test: Head twitch response (HTR) in mice; format: in vivo, mouse; conditions: mouse HTR, SC
Experimental: Agonists of the 5-HT2A receptor are well known to induce this effect in rodents and the potency of this HTR is correlated with hallucinogenic potency in humans.
Animals. Adult male C57BL/6 mice, aged 6-8 weeks (body weight 20-25 g) were used in this experiment. Animals were housed under controlled temperatures and 12-hour light/dark cycles (lights on between 07:00-19:00 h), with ad libitum food and water. This study was carried out in strict accordance with the requirements of the Committee for the Purpose of Control and Supervision of Experiments on Animals (CPCSEA), India. All efforts were made to minimize suffering.
Drugs and Drug Administration. Compound 1 was synthesized as described above. It was administered subcutaneously (SC) dissolved in saline vehicle at a volume of 10 mL/kg. Five doses were tested, with n=6 animals/group. Doses were calculated on the basis of the freebase.
Procedure. Mice were administered one dose of the drug and immediately placed into a small open field for behavioral observation. Animals were observed continuously for 20 mins and the number of head twitches (HTs) were counted by an observer blind to the treatment condition.
Statistical Analysis. The data points shown are the mean±standard error of the mean (SEM). Analysis was performed using GraphPad Prism 6. Curves were fit using a non-linear gaussian distribution to calculate ED50 and Emax values.
Additional disclosed compounds were tested in the mouse head twitch response (HTR) assay according to the procedure described in Example 43. […] Lastly, compounds with much larger benzyl and phenethyl substituents on the amine nitrogen (e.g., 10 and 11) were low efficacy in this assay, consistent with their lower maximal efficacy in the arrestin functional assay (see Example 41).

[7] = Ca^2+ flux, agonist, read-out: 5-HT1A EC50

T1 sequence (P28223 whole entry): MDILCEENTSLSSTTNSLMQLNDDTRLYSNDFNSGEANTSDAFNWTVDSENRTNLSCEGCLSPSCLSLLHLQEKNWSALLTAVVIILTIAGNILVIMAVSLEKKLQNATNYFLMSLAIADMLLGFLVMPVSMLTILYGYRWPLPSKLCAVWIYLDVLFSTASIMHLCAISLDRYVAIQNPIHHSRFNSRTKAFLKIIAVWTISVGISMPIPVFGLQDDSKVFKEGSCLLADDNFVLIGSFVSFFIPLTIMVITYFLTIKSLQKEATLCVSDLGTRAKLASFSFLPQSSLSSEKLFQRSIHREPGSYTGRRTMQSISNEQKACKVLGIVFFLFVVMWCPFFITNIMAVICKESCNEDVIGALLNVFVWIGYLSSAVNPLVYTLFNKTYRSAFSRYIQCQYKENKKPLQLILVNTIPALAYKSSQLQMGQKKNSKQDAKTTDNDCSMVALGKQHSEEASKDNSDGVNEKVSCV

Row | SMILES | Ki (5-HT2A receptor [1]) | EC50 (5-HT2A receptor [2]) | EC50 (5-HT1A receptor; [7]) | EC50 (5-HT2B receptor) | EC50 (human 5-HT2C receptor) | EC50 (5-HT2A receptor [3]) | t1/2 [4] | microsomal CLint at 1 μM [4] | t1/2 [5] | microsomal CLint at 1 μM [5] | t1/2 [6] | microsomal CLint at 1 μM [6] | Emax (5-HT2A receptor [3]; 5-HT2A beta-arrestin) | agonist type in arrestin recruitment assay (in words) (5-HT2A receptor [3]; 5-HT2A beta-arrestin) | ED50 (C57BL/6 mice; 20 min, 20 min observation, curve fit, poor in some cases, read-out: ED50 (95% CI)) | Most Efficacious Dose (C57BL/6 mice) | Emax (95% CI) (C57BL/6 mice; 20 min observation, curve fit, poor in some cases) | EC50 (5-HT1A receptor)
1 | CCC[C@@H](C)NC(=O)[C@H]1C=C2c3cccc4[nH]cc(c34)C[C@H]2N(C)C1 [Int17a, (6aR,9S)-7-methyl-N—((R)-pentan-2-yl)-4,6,6a,7,8,9-hexahydroindolo[4,3-fg]quinoline-9-carboxamide] | 41.3 nM | 425 nM | 266 nM | > 10000 nM | 962 nM | 75.8 nM | 4.578 min | 303 µL/min/mg | 1.576 min | 880 µL/min/mg | 1.961 min | 707 µL/min/mg | – | – | – | – | – | –
2 | CC[C@@H](C)NC(=O)[C@@H]1C=C2c3cccc4[nH]cc(c34)C[C@H]2N(C)C1 [Int8, (6aR,9R)—N—((R)-sec-butyl)-7-methyl-4,6,6a,7,8,9-hexahydroindolo[4,3-fg]quinoline-9-carboxamide] | 1.07 nM | 10.3 nM | 9.69 nM | 71.9 nM | 7.32 nM | 4.05 nM | 64.9 min | 21.3 µL/min/mg | 39.9 min | 34.7 µL/min/mg | 99.5 min | 13.9 µL/min/mg | < 60% | partial agonists | 0.106 mg/kg | 1 mg/kg | 14.34 (10.41-31.47) | –
3 | CCC(CC)NC(=O)[C@H]1C=C2c3cccc4[nH]cc(c34)C[C@H]2N(C)C1 [Int14a, (6aR,9S)-7-methyl-N-(pentan-3-yl)-4,6,6a,7,8,9-hexahydroindolo[4,3-fg]quinoline-9-carboxamide] | 56.2 nM | 468 nM | – | > 10000 nM | 508 nM | 35.7 nM | 3.35 min | 414 µL/min/mg | 1.699 min | 816 µL/min/mg | 1.8 min | 770 µL/min/mg | – | – | – | – | – | 1550 nM
4 | CC[C@@H](C)NC(=O)[C@H]1C=C2c3cccc4[nH]cc(c34)C[C@H]2N(CC)C1 [Compound 5a, (6aR,9S)—N—((R)-sec-butyl)-7-ethyl-4,6,6a,7,8,9-hexahydroindolo[4,3-fg]quinoline-9-carboxamide] | 74.5 nM | 118 nM | 131 nM | 2510 nM | 811 nM | 66.8 nM | 5.5 min | 251 µL/min/mg | 1.7 min | 834 µL/min/mg | 3.1 min | 453 µL/min/mg | – | – | – | – | – | –
5 | C=CCN1C[C@@H](C(=O)N[C@H](C)CC)C=C2c3cccc4[nH]cc(c34)C[C@H]21 [Compound 8a, (6aR,9S)-7-allyl-N—((R)-sec-butyl)-4,6,6a,7,8,9-hexahydroindolo[4,3-fg]quinoline-9-carboxamide] | > 1230 nM | 396 nM | 1560 nM | 3590 nM | > 10000 nM | 1180 nM | 3.4 min | 409 µL/min/mg | 0.8 min | 1660 µL/min/mg | 1.7 min | 835 µL/min/mg | – | – | – | – | – | –
6 | CCN(CC)C(=O)[C@H]1C=C2c3cccc4[nH]cc(c34)C[C@H]2N(CCCF)C1 [Compound 2a, (6aR,9S)—N,N-diethyl-7-(3-fluoropropyl)-4,6,6a,7,8,9-hexahydroindolo[4,3-fg]quinoline-9-carboxamide] | 115 nM | 169 nM | 543 nM | 2170 nM | 256 nM | 50.6 nM | 17.018 min | 81.4 µL/min/mg | 1.776 min | 780 µL/min/mg | 9.673 min | 143 µL/min/mg | – | – | – | – | – | –
7 | CCCN1C[C@@H](C(=O)N[C@H](C)CC)C=C2c3cccc4[nH]cc(c34)C[C@H]21 [Compound 3a, (6aR,9S)—N—((R)-sec-butyl)-7-propyl-4,6,6a,7,8,9-hexahydroindolo[4,3-fg]quinoline-9-carboxamide] | 27.6 nM | 146 nM | 155 nM | 1820 nM | 132 nM | 54 nM | 2.2 min | 63.4 µL/min/mg | 0.6 min | 2490 µL/min/mg | 1.4 min | 960 µL/min/mg | – | – | – | – | – | –
8 | CC[C@@H](C)NC(=O)[C@H]1C=C2c3cccc4[nH]cc(c34)C[C@H]2N(C)C1 [Int8a, (6aR,9S)—N—((R)-sec-butyl)-7-methyl-4,6,6a,7,8,9-hexahydroindolo[4,3-fg]quinoline-9-carboxamide] | 84.3 nM | 178 nM | 163 nM | > 10000 nM | 160 nM | 19.3 nM | 11.1 min | 125 µL/min/mg | 1.6 min | 843 µL/min/mg | 3.5 min | 394 µL/min/mg | – | – | – | – | – | –

— patent US20230116703A1, “NOVEL ERGOLINES AND METHODS OF TREATING MOOD DISORDERS” (priority 2021, published 2023)
